Assay results published in PubChem BioAssay (NCI).
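Five compound concentrations were applied to cells in 96-well plates for 48 hours; endpoints were derived by simple linear interpolation of the resulting dose-response curve. TGI: concentration producing complete growth inhibition.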

Columns and labels:
Test in all cases: NCI anticancer screen, dose series, 48 h
[1] = test system: EKVX NSCLC
[2] = test system: T-47D breast
[3] = test system: MALME-3M melanoma
[4] = test system: OVCAR-3 ovarian
[5] = test system: TK-10 renal
[6] = test system: UACC-257 melanoma
[7] = test system: IGROV1 ovarian
[8] = test system: RXF 393 renal
[9] = test system: ACHN renal
[10] = test system: CCRF-CEM leukemia
[11] = test system: UACC-62 melanoma
[12] = test system: NCI-H23 lung
[13] = test system: 786-0 renal
[14] = test system: SN12C renal
[15] = test system: SK-MEL-5 melanoma
[16] = test system: MDA-MB-435
[17] = test system: PC-3 prostate
[18] = test system: HCC-2998 colon

SMILES | TGI [1] | TGI [2] | TGI [3] | TGI [4] | TGI [5] | TGI [6] | TGI [7] | TGI [8] | TGI [9] | TGI [10] | TGI [11] | TGI [12] | TGI [13] | TGI [14] | TGI [15] | TGI [16] | TGI [17] | TGI [18]
O=C1CSC(c2cc3cc(Br)ccc3nc2Cl)N1c1ccc(Cl)cc1 (configuration not stated) | > 100 µM | > 100 µM | 75.8 µM | 41.3 µM | 70.7 µM | 42.5 µM | > 100 µM | 60.9 µM | > 100 µM | 97.6 µM | 22.6 µM | > 100 µM | > 100 µM | 48.7 µM | 37.9 µM | 49.5 µM | > 100 µM | 41.7 µM
Nc1ccc2c(=S)c3ccccc3[nH]c2c1 | > 100 µM | > 59 µM | > 100 µM | > 100 µM | > 100 µM | > 100 µM | > 100 µM | 98.9 µM | > 100 µM | > 95.4 µM | > 100 µM | > 100 µM | > 100 µM | > 100 µM | > 100 µM | > 100 µM | > 100 µM | > 100 µM
O[C@@H]1[C@H](OC2c3ccccc3-c3ccccc32)[C@H](OCc2ccccc2)[C@@H]2OC[C@H]1O2 | > 100 µM | > 100 µM | > 100 µM | > 100 µM | > 100 µM | > 100 µM | > 100 µM | > 100 µM | > 100 µM | > 100 µM | > 100 µM | > 100 µM | 42.1 µM | > 100 µM | > 100 µM | > 100 µM | > 100 µM | > 100 µM
CC(C)(C)OC(=O)/N=C/c1c(O)c2ccccc2oc1=O | > 100 µM | > 100 µM | > 100 µM | > 100 µM | 66.7 µM | > 100 µM | > 100 µM | > 100 µM | > 100 µM | > 100 µM | > 100 µM | > 100 µM | > 100 µM | > 100 µM | > 100 µM | > 100 µM | > 100 µM | > 100 µM
COC(=O)/C(=N\N)C(C(=O)C(=O)Nc1cc(Cl)ccc1Cl)c1nc2ccc([N+](=O)[O-])cc2[nH]c1=O (configuration not stated) | > 100 µM | > 100 µM | > 100 µM | > 100 µM | > 100 µM | > 100 µM | > 100 µM | > 100 µM | > 100 µM | > 100 µM | > 100 µM | > 100 µM | > 100 µM | > 100 µM | > 100 µM | > 100 µM | > 100 µM | > 100 µM
O=c1oc2ccccc2c(-c2ccc(O)cc2)c1Oc1ccccc1 | 49.9 µM | > 100 µM | 9.26 µM | > 63.3 µM | > 96.7 µM | 30.7 µM | 18.6 µM | > 74 µM | > 100 µM | > 100 µM | 18.6 µM | 18.7 µM | 66.4 µM | 55.3 µM | 41.2 µM | > 100 µM | > 96.1 µM | 19.8 µM
CC1OC(OC2C(OC(=O)[C@]34CCC(C)(C)C[C@H]3C3=CC[C@@H]5[C@@]6(C)CC[C@H](OC7OC(CO)C(O)C(O)C7OC7OC(CO)C(O)C(O)C7O)C(C)(C)[C@@H]6CC[C@@]5(C)[C@]3(C)CC4)OCC(O)C2O)C(O)C(O)C1OC1OCC(O)C(O)C1O (some centres not stated) | 18.6 µM | 42.3 µM | 12.6 µM | > 100 µM | 21.7 µM | 9.17 µM | 44.9 µM | 25.4 µM | 24.5 µM | 42.3 µM | 33.1 µM | 24.5 µM | 24 µM | 9.27 µM | 28 µM | 7.34 µM | 25.8 µM | 4.79 µM
CCN(C(=O)N[C@@H](CC(C)C)C(=O)NCC(=O)OC)c1ccccc1 | > 100 µM | > 100 µM | 51.1 µM | > 100 µM | > 100 µM | 61.9 µM | > 100 µM | > 100 µM | > 100 µM | > 100 µM | 97.1 µM | > 100 µM | > 100 µM | > 100 µM | > 100 µM | > 100 µM | > 100 µM | > 100 µM
COc1cc(Nc2cc(Cl)cc(Cl)c2)nc(N)n1 | 69 µM | 92.5 µM | 40.4 µM | 41.1 µM | 53.9 µM | 38.8 µM | 44.2 µM | 28.4 µM | 37.4 µM | 43.3 µM | 33.4 µM | 49.2 µM | 31.8 µM | 40.1 µM | 29.7 µM | 75.8 µM | 59.6 µM | 34 µM
COc1ccc(NC(=S)c2ccc([N+](=O)[O-])o2)cc1 | 7.78 µM | 17.3 µM | 7.83 µM | 4.42 µM | 9.84 µM | 7.2 µM | 8.56 µM | 5.01 µM | 5.42 µM | 8.66 µM | 3.47 µM | 5.52 µM | 4.99 µM | 4.85 µM | 13.1 µM | 5.66 µM | 2.97 µM | 3 µM
S=c1[nH]nc(Cn2c3ccc(Br)cc3c3nc4ccccc4nc32)o1 | > 100 µM | > 100 µM | > 100 µM | > 73.7 µM | > 100 µM | > 100 µM | > 90.2 µM | > 60 µM | > 100 µM | > 100 µM | > 82.6 µM | > 100 µM | > 100 µM | > 100 µM | > 100 µM | > 31.6 µM | > 93.2 µM | > 100 µM
Cc1nc2ccc(N=Nc3c(C)noc3C)cc2[nH]1 | > 100 µM | 15.2 µM | > 100 µM | 84.2 µM | > 100 µM | > 100 µM | 34.3 µM | 52.4 µM | 86.2 µM | > 100 µM | 75.9 µM | > 100 µM | > 100 µM | > 100 µM | 29.8 µM | > 100 µM | > 100 µM | > 100 µM
O=C1C(Cl)=CC2(C=C1Cl)CCN=c1c(O)c3c(c(O)c12)=NC=N3 | > 100 µM | > 100 µM | 43.4 µM | 89.1 µM | > 100 µM | 52.4 µM | > 100 µM | 70.7 µM | > 100 µM | > 100 µM | 34.7 µM | 82.5 µM | > 100 µM | > 100 µM | 30.8 µM | 32.7 µM | > 100 µM | > 100 µM
CC(C)=CCC[C@@H](C)C1=C(N)C(O)=C(C)C(=O)C1=O | > 75 µM | > 75 µM | > 75 µM | > 75 µM | > 75 µM | > 75 µM | > 75 µM | > 75 µM | > 53.4 µM | > 70.9 µM | > 75 µM | > 75 µM | > 75 µM | > 75 µM | > 75 µM | > 75 µM | > 75 µM | > 75 µM
Cc1cc2nnn(C3CCCCO3)c2cc1C (configuration not stated) | > 100 µM | > 100 µM | > 100 µM | > 100 µM | > 100 µM | > 100 µM | > 100 µM | > 100 µM | > 100 µM | > 100 µM | > 100 µM | > 100 µM | > 100 µM | > 100 µM | > 100 µM | > 100 µM | > 100 µM | > 100 µM
CC(C)C(=O)Cc1ccc2ccccc2n1 | > 100 µM | > 100 µM | > 100 µM | > 100 µM | > 100 µM | > 100 µM | > 100 µM | > 100 µM | > 100 µM | > 100 µM | > 100 µM | > 100 µM | > 100 µM | > 100 µM | > 100 µM | > 100 µM | > 100 µM | > 100 µM
COC(=O)C1=C(OC)C(=P2(c3ccccc3)CC(c3ccccc3)=C2c2ccccc2)C(C(=O)OC)=C1C(=O)OC (configuration not stated) | > 100 µM | > 51.5 µM | > 78.2 µM | > 100 µM | > 76 µM | > 100 µM | > 100 µM | > 100 µM | > 100 µM | 4.74 µM | > 100 µM | > 100 µM | > 100 µM | > 100 µM | > 81.9 µM | > 100 µM | > 100 µM | > 100 µM
NS(=O)(=O)c1c(O)c2ccccc2oc1=O | > 100 µM | > 100 µM | > 100 µM | > 100 µM | > 100 µM | > 100 µM | > 100 µM | > 100 µM | > 100 µM | > 100 µM | > 100 µM | > 100 µM | > 100 µM | > 100 µM | > 100 µM | > 100 µM | > 100 µM | > 100 µM
Cc1ccc2c(=O)cc(-c3cc(C)sc3C)[nH]c2n1 | > 100 µM | > 100 µM | > 100 µM | 58.6 µM | > 100 µM | > 100 µM | > 100 µM | > 24.4 µM | > 100 µM | > 25.5 µM | > 100 µM | > 24 µM | > 100 µM | > 93.4 µM | 16.4 µM | 2.86 µM | > 30.2 µM | 36.3 µM
